Experimental data as given in PubChem BioAssay AID1963865 (Molecular Pharmacology Branch, DTP, NCI, 2024).

System: KRAS PDC multicell spheroid viability
Experiment: Anticancer human tumor 825966-067-R-J1-PDC patient-derived colon carcinoma cell line growth inhibition [KRAS2]
Conditions: for IC50: curve of first compound; for viability, T/C: stronger effect = lower value
How it was run: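 KRAS-mutant tumor cells were grown as spheroids with HUVEC endothelial cells and human MSCs as stroma. Targeted agents were tested alone and with KRAS pathway inhibitors. Doses started at or near clinical Cmax, or 10 microM, descending half-log.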

[1] = second compound 0.1 µM, first compound 0.0316 µM
[2] = second compound 0.316 µM, first compound 0.0316 µM
[3] = second compound 1 µM, first compound 0.0316 µM
[4] = second compound 3.16 µM, first compound 0.0316 µM
[5] = second compound 10 µM, first compound 0.0316 µM
[6] = second compound 0.1 µM, first compound 0.1 µM
[7] = second compound 0.1 µM, first compound 0.316 µM
[8] = second compound 0.1 µM, first compound 1 µM
[9] = second compound 0.1 µM, first compound 3.16 µM
[10] = second compound 0.1 µM, first compound 10 µM
[11] = second compound 0.316 µM, first compound 0.1 µM
[12] = second compound 0.316 µM, first compound 0.316 µM
[13] = second compound 0.316 µM, first compound 1 µM
[14] = second compound 0.316 µM, first compound 3.16 µM
[15] = second compound 0.316 µM, first compound 10 µM
[16] = second compound 1 µM, first compound 0.1 µM
[17] = second compound 1 µM, first compound 0.316 µM
[18] = second compound 1 µM, first compound 1 µM
[19] = second compound 1 µM, first compound 3.16 µM
[20] = second compound 1 µM, first compound 10 µM
[21] = second compound 3.16 µM, first compound 0.1 µM
[22] = second compound 3.16 µM, first compound 0.316 µM
[23] = second compound 3.16 µM, first compound 1 µM
[24] = second compound 3.16 µM, first compound 3.16 µM
[25] = second compound 3.16 µM, first compound 10 µM
[26] = second compound 10 µM, first compound 0.1 µM
[27] = second compound 10 µM, first compound 0.316 µM
[28] = second compound 10 µM, first compound 1 µM
[29] = second compound 10 µM, first compound 3.16 µM
[30] = second compound 10 µM, first compound 10 µM
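Also: spheroids exposed to compounds for 7 days.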
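For viability, T/C in this document: 100% = DMSO vehicle control viability.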

CC(=O)Nc1cccc(-n2c(=O)n(C3CC3)c(=O)c3c(Nc4ccc(I)cc4F)n(C)c(=O)c(C)c32)c1 + COc1cc2nc(C)nc(NC(C)c3cc(N)cc(C(F)(F)F)c3)c2cc1OC1CCOC1
IC50 (second compound 0.1 µM): > 31.6 nM
IC50 (second compound 0.316 µM): 29.6 nM
IC50 (second compound 1 µM): 18.5 nM
IC50 (second compound 3.16 µM): 3.25 nM
IC50 (second compound 10 µM): < 0.1 nM
viability, T/C (second compound 0.1 µM, first compound 0.0001 µM): 95.3%
viability, T/C (second compound 0.1 µM, first compound 0.000316 µM): 114%
viability, T/C (second compound 0.1 µM, first compound 0.001 µM): 144%
viability, T/C (second compound 0.1 µM, first compound 0.00316 µM): 128%
viability, T/C (second compound 0.1 µM, first compound 0.01 µM): 64%
viability, T/C [1]: 84.8%
viability, T/C (second compound 0.316 µM, first compound 0.0001 µM): 95%
viability, T/C (second compound 0.316 µM, first compound 0.000316 µM): 126%
viability, T/C (second compound 0.316 µM, first compound 0.001 µM): 128%
viability, T/C (second compound 0.316 µM, first compound 0.00316 µM): 110%
viability, T/C (second compound 0.316 µM, first compound 0.01 µM): 94.2%
viability, T/C [2]: 47.3%
viability, T/C (second compound 1 µM, first compound 0.0001 µM): 98.5%
viability, T/C (second compound 1 µM, first compound 0.000316 µM): 103%
viability, T/C (second compound 1 µM, first compound 0.001 µM): 113%
viability, T/C (second compound 1 µM, first compound 0.00316 µM): 114%
viability, T/C (second compound 1 µM, first compound 0.01 µM): 72.3%
viability, T/C [3]: 30.6%
viability, T/C (second compound 3.16 µM, first compound 0.0001 µM): 109%
viability, T/C (second compound 3.16 µM, first compound 0.000316 µM): 109%
viability, T/C (second compound 3.16 µM, first compound 0.001 µM): 128%
viability, T/C (second compound 3.16 µM, first compound 0.00316 µM): 50.9%
viability, T/C (second compound 3.16 µM, first compound 0.01 µM): 18.8%
viability, T/C [4]: 5.41%
viability, T/C (second compound 10 µM, first compound 0.0001 µM): 2.53%
viability, T/C (second compound 10 µM, first compound 0.000316 µM): 2.62%
viability, T/C (second compound 10 µM, first compound 0.001 µM): 0.97%
viability, T/C (second compound 10 µM, first compound 0.00316 µM): 0.39%
viability, T/C (second compound 10 µM, first compound 0.01 µM): 0.39%
viability, T/C [5]: 0.27%

COc1cc(Nc2ncc3c(n2)-c2ccc(Cl)cc2C(c2c(F)cccc2OC)=NC3)ccc1C(=O)O + COc1cc2nc(C)nc(NC(C)c3cc(N)cc(C(F)(F)F)c3)c2cc1OC1CCOC1
IC50 (second compound 0.1 µM): > 10000 nM
IC50 (second compound 0.316 µM): > 10000 nM
IC50 (second compound 1 µM): > 10000 nM
IC50 (second compound 3.16 µM): > 10000 nM
IC50 (second compound 10 µM): < 31.6 nM
viability, T/C [1]: 124%
viability, T/C [6]: 93.5%
viability, T/C [7]: 144%
viability, T/C [8]: 171%
viability, T/C [9]: 136%
viability, T/C [10]: 130%
viability, T/C [2]: 105%
viability, T/C [11]: 123%
viability, T/C [12]: 144%
viability, T/C [13]: 140%
viability, T/C [14]: 133%
viability, T/C [15]: 145%
viability, T/C [3]: 87%
viability, T/C [16]: 155%
viability, T/C [17]: 156%
viability, T/C [18]: 137%
viability, T/C [19]: 145%
viability, T/C [20]: 118%
viability, T/C [4]: 52%
viability, T/C [21]: 127%
viability, T/C [22]: 81.3%
viability, T/C [23]: 110%
viability, T/C [24]: 69.3%
viability, T/C [25]: 112%
viability, T/C [5]: 3.07%
viability, T/C [26]: 1.62%
viability, T/C [27]: 0.85%
viability, T/C [28]: 2.07%
viability, T/C [29]: 7.95%
viability, T/C [30]: 1.44%

COc1cc2nccc(Oc3ccc(NC(=O)C4(C(=O)Nc5ccc(F)cc5)CC4)cc3)c2cc1OC + COc1cc2nc(C)nc(NC(C)c3cc(N)cc(C(F)(F)F)c3)c2cc1OC1CCOC1
IC50 (second compound 0.1 µM): 1560 nM
IC50 (second compound 0.316 µM): 1460 nM
IC50 (second compound 1 µM): 1630 nM
IC50 (second compound 3.16 µM): 675 nM
IC50 (second compound 10 µM): < 31.6 nM
viability, T/C [1]: 80.9%
viability, T/C [6]: 87.8%
viability, T/C [7]: 83.9%
viability, T/C [8]: 75.1%
viability, T/C [9]: 9.68%
viability, T/C [10]: 7.53%
viability, T/C [2]: 96.2%
viability, T/C [11]: 81.1%
viability, T/C [12]: 77.5%
viability, T/C [13]: 71.4%
viability, T/C [14]: 6.75%
viability, T/C [15]: 4.21%
viability, T/C [3]: 77.1%
viability, T/C [16]: 98.6%
viability, T/C [17]: 78.5%
viability, T/C [18]: 83.5%
viability, T/C [19]: 4.2%
viability, T/C [20]: 5.34%
viability, T/C [4]: 82.3%
viability, T/C [21]: 80.6%
viability, T/C [22]: 91.9%
viability, T/C [23]: 31.9%
viability, T/C [24]: 2.11%
viability, T/C [25]: 0.21%
viability, T/C [5]: 21%
viability, T/C [26]: 3.18%
viability, T/C [27]: 1.6%
viability, T/C [28]: 1.58%
viability, T/C [29]: 0.32%
viability, T/C [30]: 0.7%
